ChEMBL document CHEMBL3507680, “University of Dundee, Gates Library screen for HepG2 cell viability”

Assay: Human HepG2 cell viability assay in 384 well format
Type: toxicity, cell-based
Set-up: dose 125 nL, time 70.5 hour; cytotoxicity at 70.5 h: concentration not given beside the values
Conditions: HepG2 cells, read-out: Inhibition

SMILES	cytotoxicity at 70.5 h
CCOC(=O)[C@@H]1[C@@H](OC)C(=O)N(C)C12CCN(C(=O)C(CC)CC)CC2	-7.55%
Cc1cn(CC(=O)NC2CCN(CC3CC3)CC2)c2ccccc12	-9.9%
CC(C)n1cnnc1CN(C)C(=O)C1CCCN(C2CCN(C)CC2)C1 (centres undefined)	-3.47%
CC1CN(CC(=O)Nc2nccs2)CCN1Cc1nccn1C (centres undefined)	-6.31%
Cc1cc(C(=O)N2CCN(Cn3cc(Cl)cn3)CC2)on1	-8.38%
c1ccc(-c2nnn3c2COC(CNCc2ccccn2)C3)cc1 (centres undefined)	-5.4%
Cc1nc(C)n(CC2CCCN2Cc2nc(-c3cccs3)no2)n1 (centres undefined)	-12.2%
CCNC(c1cccnc1)c1ccc(F)cc1F (centres undefined)	2.45%
Cc1nccn1-c1ncccc1CNC(=O)c1ccc(O)nc1	-10.6%
CCc1ccccc1OC1CN(C(=O)c2sccc2N)C1	-3.46%
Cc1ccc(NS(=O)(=O)c2cccc(C#N)c2)c(CN(C)C)c1	0.936%
CN(C)C(=O)CN1CCC2(CCCN(Cc3cccs3)C2)C1=O (centres undefined)	-12.9%
O=C(Nc1ncn(CC(=O)N2CCCCCC2)n1)C1CCCO1 (centres undefined)	2.64%
Cc1ncc(CN(C)C(=O)Nc2cccc(N3CCNC3=O)c2)s1	-3.19%
Cc1ccc2nc(CN3CCCCC3C(=O)N3CCOCC3)cn2c1 (centres undefined)	7.36%
Cc1noc(C)c1C(=O)N1CCSc2ccc(Cl)cc21	11.5%
CC1c2ncc(Cn3cncn3)n2CCN1CC1CCOCC1 (centres undefined)	-5.6%
O=C(NC1CCN(c2nccs2)CC1)c1cccs1	10.5%
CC(NC(=O)N(C)Cc1ccc2c(c1)OCCO2)c1nncn1C (centres undefined)	-0.921%
Cc1ccc(NS(=O)(=O)c2cc3c(c(C(=O)O)c2)OCCO3)c(F)c1	44.6%
NC(=O)C1CCN(c2nc3nccc(-c4ccccn4)c3c(=O)[nH]2)CC1	-3.55%
COc1cccc(NC(=O)C(C)Cn2cc(Cl)cn2)c1 (centres undefined)	-7.91%
CCc1nc(C(=O)N2CCN(C)CC2C)nn1-c1ccccc1Cl (centres undefined)	23.5%

SMILES	cytotoxicity at 70.5 h
O=C(NCCn1ccnc1)c1cccc(Br)c1	-13%
CSCC(=O)N1CCCCC1Cn1cc(C)cn1 (centres undefined)	-1.03%
Cc1nc(C2CCN(CC(=O)NC3CC3)CC2)cc(N2CCOCC2)n1	-0.642%
O=C(NCCc1ccccc1)N1CCCCC1C1OCCO1 (centres undefined)	-1.28%
CCn1cc(C(=O)N2CCCC(c3[nH]ncc3S(C)(=O)=O)C2)cn1 (centres undefined)	-8.2%
O=C(Cc1ccccn1)N1CCC2(CC1)CN(c1ncccn1)CCO2	-10.3%
CC(=O)N1CCC2(C1)c1ccccc1S(=O)(=O)N2CCC(C)C (centres undefined)	-11.2%
CC(C)Cn1cc(C(=O)NC2CCS(=O)(=O)C2)c2ccccc2c1=O (centres undefined)	-13.3%
COCCN1CCC(NCc2cccc(C)c2)C1 (centres undefined)	-12.6%
Cc1ncccc1CNCC1CCN(CCO)CC1	-0.718%
CN(CC(=O)NC(C)(C)C)C(=O)C1CC(c2cccc(F)c2)=NO1 (centres undefined)	4.91%
Cn1nnnc1SCC1(O)CCCCC1	-5.84%
CCC(C(=O)NCc1ccncc1)N(c1ccc(OC)cc1)S(C)(=O)=O (centres undefined)	-4.69%
CS(=O)(=O)CCN1CCC(=Cc2ccccc2)CC1	-3.57%
O=C(NCCCn1cncn1)c1ccc(-c2ccco2)[nH]c1=O	-3.92%
Cc1cc(CN2CCCC(NS(C)(=O)=O)C2)ccc1-n1cncn1 (centres undefined)	11.7%
Cc1cccc(C(C(=O)NCC2(Cn3nc(C)cc3C)CC2)N(C)C)c1 (centres undefined)	-2.42%
Cc1n[nH]c(C)c1C1CCCN1C(=O)c1coc(Br)c1 (centres undefined)	-5.01%
c1ccc(-c2nc3c(c(NCCn4ccnn4)n2)CCNCC3)nc1	-6.02%
Cc1cccnc1NCCNC(=O)C1CCN(Cc2ccco2)CC1	9.3%
Cc1cc(CN2CC[C@H]3C[C@H](C(=O)N4CCC(C)CC4)O[C@H]3C2)no1	-9.04%
Cn1cnc2ccc(NC(=O)CC3CCN(C4CCCCC4)CC3)cc21	-4.48%
COc1c(CNC(c2cccc(F)c2)c2nccn2C)c(C)nn1C (centres undefined)	19%

SMILES	cytotoxicity at 70.5 h
CN(C)Cc1ccccc1Cn1cncc1-c1cnn(C)c1	-3.97%
OCC1CCCCN1CCn1ccnc1-c1ccc2c(c1)OCCO2 (centres undefined)	-5.38%
CN(C)C(=O)[C@H]1C[C@@H]2CN(CCc3ccccc3)C[C@H]1O2	-6.59%
Cc1n[nH]c(CN2CCN(C(=O)C3CCC3)[C@@H]3CS(=O)(=O)C[C@@H]32)n1	0.743%
CC(C)CN1C(=O)CO[C@@H]2CNC[C@H]21	-10.3%
Cc1nccn1-c1cc(CNC(=O)c2ccnc(N(C)C)c2)ccn1	-10.5%
O=C(CCCc1ccccn1)N1CCC(Nc2cccnn2)CC1	-0.523%
CC(C)(C)c1ncc(C(=O)NCc2cccc(C(=O)N3CCCC3)c2)s1	-1.76%
Cn1ccnc1C(=O)N1CCC2(CCN2CC2CC2)C1 (centres undefined)	9.69%
CN(C)CCN1CCOCC2(CCCN(C(=O)c3ccccn3)C2)C1 (centres undefined)	0.371%
COCCCN(CCOC)C(=O)Nc1ccc(C)cc1C	0.857%
CC(NCc1cccnc1)c1ccc(OCC(=O)NC2CC2)cc1 (centres undefined)	-8.83%
CNCCc1nc2cc(Cl)ccc2[nH]1	16.5%
CC(C)c1noc(CCC(=O)NCC(c2ccco2)N2CCCC2)n1 (centres undefined)	-7.17%
CN(C)C(=O)CS(=O)(=O)Cc1cc(Cl)c2c(c1)OCCO2	3.21%
CC(SCCS(C)(=O)=O)c1nc(Cc2ccc(F)cc2)no1 (centres undefined)	-0.925%
Cc1ncsc1CN1CC[C@H]2OCC[C@@]2(C(=O)NC(C)C)C1	33.4%
COc1ccc(-c2nc(CCNc3nnc(C)c(C)c3C#N)co2)cc1	13.7%
CN(C)Cc1nnc(C2CCCN(c3cc(C(F)(F)F)ccn3)C2)n1C (centres undefined)	-11.1%
O=C(O)[C@]12CCCN(Cc3ccco3)C[C@H]1CN(c1ncccn1)C2	-12.1%
COC(=O)c1cccc(C(=O)N2CCCC(n3cncn3)C2)c1 (centres undefined)	-8.97%
Cn1c(C(=O)NCC2(N)CCCC2)cc2ccccc21	3.39%
c1ccc(-c2nnc([C@H]3CCN(C4CCC4)C3)o2)cc1	0.134%

SMILES	cytotoxicity at 70.5 h
Cc1noc(C)c1CNC(=O)N1CCC(CO)CC1	-3.59%
O=C1O[C@@H]2CN(Cc3cccc(O)c3)C[C@@H]2N1CCCN1CCOCC1	-4.83%
COc1ccc(F)c(-c2cc(C(=O)NC3CC3)ccn2)c1	-14.2%
Cc1cc(C)nc(N2CCC(Cn3cc(C(=O)N(C)C)cn3)CC2)n1	-3.57%
Cc1cccc(OCCC(=O)N(C)CCC#N)c1C	-8.74%
O=S1(=O)NCC2(CCN(Cc3ccncc3)CC2)Oc2ncccc21	23.1%
CC(O)CN(C)S(=O)(=O)c1ccc(C#N)cc1F (centres undefined)	-2.23%
CN(CCN1CCCCCC1)c1nccc(N2CCC(O)C2)n1 (centres undefined)	-6.64%
Cc1ccc(N2CCC3(CCN(Cc4nccs4)CC3)CC2)nn1	-7.07%
CN(C)c1cc(C2CCCN(Cc3cnn(C)c3)C2)ccn1 (centres undefined)	-0.665%
Cc1nnc(NC(=O)CN2CCc3nn(C)c(=O)cc3C2)s1	10.8%
Cc1ccc(NC(=O)c2cc3c(=O)n(C)c(=O)n(C)c3nc2C)cc1Cl	1.87%
CCc1nnc2n1CCN(C(=O)c1ccc3c(c1)NC(=O)CO3)C2	-1.73%
O=C(Cc1ccon1)N1CCN(c2ccc(F)cc2Cl)CC1	-6.01%
CCN(CC)C(=O)CNC(=O)c1c[nH]c2ccc(OC)cc12	3.81%
CCc1ncc2c(n1)CN(c1cc(NC3CC3)nc(N)n1)C2	-8.23%
NC(=O)CN(Cc1ccc(Br)cc1)C(=O)c1ccncc1	-2.62%
Cc1ccc(CN(CCCO)Cc2nc3ccccc3[nH]2)s1	-3.29%
OC(CN(Cc1ccccc1)Cc1ccon1)c1ccco1 (centres undefined)	-7.07%
COc1c(C)cnc(CN2CCC(N(C)S(C)(=O)=O)CC2)c1C	-16%
CCc1cnc(NCC2OCCc3ccccc32)nc1 (centres undefined)	3.74%
COc1cc(N2CCCn3cnc(COCCO)c3C2)ncn1	0.488%
CCOc1ncccc1CNC(=O)NC1CCOc2ccccc21 (centres undefined)	-4.63%

SMILES	cytotoxicity at 70.5 h
CCN(CC)S(=O)(=O)N1CCCN(CC2CCCO2)CC1 (centres undefined)	23.8%
CC(=O)N1CCCN(c2cc(C3CN(C)CCO3)nc(C)n2)CC1 (centres undefined)	12%
Cc1nc(C2CCCN(C(=O)c3cc(C)sc3C)C2)no1 (centres undefined)	-2.35%
Cc1nc(-c2noc3ccc(C(=O)NCCN4CCOCC4)cc23)cs1	-8.24%
COC(=O)[C@H]1C[C@@H](O)CCN1S(=O)(=O)c1ccc(F)cc1F	21.8%
Fc1cccc(Cl)c1CNCCOc1ccccn1	-20.9%
Cc1ccnc(C2CCN(c3ccnc(C)n3)C2)n1 (centres undefined)	-12.3%
CN1C(=N)NC(=O)/C1=C/c1ccc(-c2ccc(Br)cc2)o1	1.84%
COc1ccc(-c2cc(C3CCNCC3)nc(C)n2)cc1	-6.57%
Cc1nc[nH]c1CN1CCCC12CCN(c1ccccn1)CC2	-3.64%
CS(=O)(=O)N1C[C@H](C(=O)Nc2cccnc2)[C@@H]2CCO[C@@H]2C1	-4.86%
CNC(=O)[C@@H]1C[C@H]2CN(C(=O)c3ccccn3)C[C@H]2N1C(C)C	15.1%
COCc1cc(NCCc2ccc(S(N)(=O)=O)cc2)n2nccc2n1	-20.7%
CCN1C(=O)C2(CCOCC2)c2cc(NC(=O)c3ccco3)ccc21	-8.84%
CCNc1nnc(CCn2nc(C)c(Br)c2C)s1	-7.99%
Cc1cccc(S(=O)(=O)N2Cc3nccn3CC(CN(C)C)C2)c1 (centres undefined)	-8.23%
CCn1c(CN(C)C)nnc1C1CCN(Cc2ccccn2)CC1	20.6%
COc1ccc(Cl)cc1CN(C)C(=O)CN1C(=O)OC[C@@H]1C(C)C	-6.97%
CC(C)[C@@H]1CN(C(=O)CCc2ccc(F)cc2)C[C@H]1C(=O)O	28.6%
COc1c(C2CCCN2Cc2cn3ccsc3n2)c(C)nn1C (centres undefined)	-6.12%
Cn1ccc(CN2CCC(CC(=O)N3CCCC3)CC2)cc1=O	-6.85%
O=C(C1CCOCC1)N1CCc2ncc(CN3CCOCC3)n2CC1	-11.5%
